Assay results as given in paper PMC6302903, “Protein and Chemical Determinants of BL-1249 Action and Selectivity for K2P Channels” (ACS Chemical Neuroscience, 2018).
Values after ≈ are worked out from the molar mass of the structure shown.

Experiments:
TREK-1/AAK M2-C = TREK-1/AAK M2-C (Mus musculus, UniProt O88454+P97438); assay: TEVC of chimera TREK-1/AAK M2-C; format: cell-based; conditions: Xenopus oocytes
K2P2.1(TREK-1)Δ322 = molecular target: T1, K2P2.1(TREK-1)Δ322 (Mus musculus, UniProt P97438); assay: TEVC of C-terminal truncation at residue 322; format: cell-based; conditions: Xenopus oocytes, saturation not reached, fit with upper boundary of 15 (I/I0)
T1 construct: truncations at residue 322, K2P2.1(TREK-1)Δ322, equivalent to a previously described mutant called Δ89; expressed in transfected cells; host or cells: Xenopus laevis oocytes, mRNA injected
Source text: (§1) Constructs for murine K2P channels, including K2P2.1(TREK-1) (Gene ID 16526), K2P10.1(TREK-2) (Gene ID 72258), K2P4.1(TRAAK) (Gene ID 16528), K2P5.1(TASK-2) (Gene ID 16529), K2P3.1(TASK-1) (Gene ID 16527), K2P9.1(TASK-3) (Gene ID 223604), and K2P18.1(TRESK) (Gene ID 332396) in pGEMHE/pMO, were used for Xenopus oocyte experiments as previously described.[10],[26] Murine K2P2.1(TREK-1) (Gene ID 16526) was expressed in HEK-293 cells using a pIRES-EGFP construct as previously described.[26] Murine K2P13.1(THIK-1) (Gene ID 217826) and K2P1.1(TWIK-1) (Gene ID 16525) were cloned into pGEMHE/pMO for use in Xenopus oocytes. […]
(§2) Xenopus laevis oocytes were harvested in accordance with UCSF IACUC protocol AN129690 and digested in calcium-free ND-96 (96 mM NaCl, 2 mM KCl, 3.8 mM MgCl2) immediately following harvest, as previously described.[6],[10] […] Defolliculated stage V–VI oocytes were injected with 0.2–6.0 ng of mRNA in 50 nL, and currents were recorded 24–48 h after injection. mRNA was synthesized from plasmid DNA using mMessage mMachine Kit (T7 promoter, Ambion, Life Technologies) and purified using RNEasy Kit (Qiagen). […] Once stabilized basal currents were recorded, compounds were perfused at various concentrations in standard ND96 and currents were allowed to increase to stabilization before recording final current. […]

K2P2.1(TREK-1)Δ308 = molecular target: T2, K2P2.1(TREK-1)Δ308 (Mus musculus, UniProt P97438); assay: TEVC of C-terminal truncation at residue 308; format: cell-based; conditions: Xenopus oocytes, saturation not reached, fit with upper boundary of 15 (I/I0)
T2 construct: and at residue 308, K2P2.1(TREK-1)Δ308; expressed in transfected cells; host or cells: Xenopus laevis oocytes, mRNA injected
Source text: as §1, §2

[1] = BL-1249 solubility limit in recording solution; format: physicochemical; conditions: standard ND96 recording solution
Procedure: (§3) BL-1249 activates K2P2.1(TREK-1)[18],[40] and K2P10.1(TREK-2),[7] but its effects on other K2P channels have not been characterized. […] In order to test if the original 10 μM assay had missed BL-1249 effects in other K2P channels, we tested concentrations of BL-1249 up to the solubility limit (∼80 μM) against the other K2P subfamily representatives.

K2P2.1(TREK-1)GGG = molecular target: T3, K2P2.1(TREK-1)GGG (Mus musculus, UniProt P97438, D309G/I307G); assay: TEVC of triple-glycine mutant uncoupling the C-terminal tail; format: cell-based; conditions: Xenopus oocytes
T3 construct: expressed in transfected cells; host or cells: Xenopus laevis oocytes, mRNA injected
Source text: Gating stimuli detected by sensors in various parts of the channel converge on the K2P selectivity filter C-type gate.[6],[8],[10],[12],[35] Because the C-terminal tail is the sensor for K2P2.1(TREK-1) activation by both physiological[41]−[46] and chemical[45],[47] activators, we asked whether uncoupling the C-terminal tail from the channel using a triple-glycine mutant at the M4/C-terminal tail junction, K2P2.1(TREK-1)GGG,[41] impacted the BL-1249 response. […]
as §2, with “current. Fold activation upon compound application is expressed as I/I0 (0 mV), derived from the current at 0 mV in the presence of compound divided by the basal current at 0 mV in standard ND96 without compound.” for “current.”

K2P18.1(TRESK) = molecular target: T4, K2P18.1(TRESK) (Mus musculus, UniProt Q6VV64); assay: TEVC of K2P18.1(TRESK) in Xenopus oocytes; format: cell-based; conditions: concentrations up to the solubility limit (∼80 μM)
T4 construct: expressed in transfected cells; host or cells: Xenopus laevis oocytes (mRNA injection, pGEMHE/pMO)
Procedure: as §3, with “representatives. […]” for “representatives.”
as §2, with “current. Fold activation upon compound application is expressed as I/I0 (0 mV), derived from the current at 0 mV in the presence of compound divided by the basal current at 0 mV in standard ND96 without compound. Data were analyzed and plotted using Graphpad Prism Version 5 (GraphPad Software, San Diego California USA, www.graphpad.com).” for “current.”

K2P9.1(TASK-3) = molecular target: T5, K2P9.1(TASK-3) (Mus musculus, UniProt Q3LS21); assay: TEVC of K2P9.1(TASK-3) in Xenopus oocytes; format: cell-based; conditions: concentrations up to the solubility limit (∼80 μM)
T5 construct: expressed in transfected cells; host or cells: Xenopus laevis oocytes (mRNA injection, pGEMHE/pMO)
Procedure: as §3, with “representatives. […]” for “representatives.”
as §2, with “current. Fold activation upon compound application is expressed as I/I0 (0 mV), derived from the current at 0 mV in the presence of compound divided by the basal current at 0 mV in standard ND96 without compound. Data were analyzed and plotted using Graphpad Prism Version 5 (GraphPad Software, San Diego California USA, www.graphpad.com).” for “current.”

Chain of TREK-1/AAK M2-C (P97438 16-167): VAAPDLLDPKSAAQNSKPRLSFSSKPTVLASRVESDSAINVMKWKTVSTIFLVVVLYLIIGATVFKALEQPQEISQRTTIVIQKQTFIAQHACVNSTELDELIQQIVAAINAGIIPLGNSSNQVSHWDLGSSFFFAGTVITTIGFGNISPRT
Chain of TREK-1/AAK M2-C (O88454 115-398): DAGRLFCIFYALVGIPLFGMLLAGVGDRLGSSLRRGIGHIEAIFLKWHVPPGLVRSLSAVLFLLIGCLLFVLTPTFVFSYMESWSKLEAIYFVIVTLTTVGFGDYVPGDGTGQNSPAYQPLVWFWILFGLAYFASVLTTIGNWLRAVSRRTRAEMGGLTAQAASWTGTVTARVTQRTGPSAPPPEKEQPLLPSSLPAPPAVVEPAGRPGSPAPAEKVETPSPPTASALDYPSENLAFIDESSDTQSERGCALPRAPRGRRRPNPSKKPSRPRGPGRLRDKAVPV
T2 sequence (P97438 1-308 isoform P97438-2): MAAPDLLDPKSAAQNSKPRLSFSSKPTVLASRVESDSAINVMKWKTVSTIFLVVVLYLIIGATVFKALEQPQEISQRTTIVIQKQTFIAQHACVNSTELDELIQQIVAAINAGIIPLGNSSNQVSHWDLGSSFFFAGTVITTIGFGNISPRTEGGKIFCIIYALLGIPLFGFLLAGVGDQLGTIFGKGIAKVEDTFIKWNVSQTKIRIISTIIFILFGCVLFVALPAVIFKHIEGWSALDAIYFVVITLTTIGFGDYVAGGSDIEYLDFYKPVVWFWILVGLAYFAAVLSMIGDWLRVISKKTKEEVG
T4 sequence (Q6VV64 whole entry): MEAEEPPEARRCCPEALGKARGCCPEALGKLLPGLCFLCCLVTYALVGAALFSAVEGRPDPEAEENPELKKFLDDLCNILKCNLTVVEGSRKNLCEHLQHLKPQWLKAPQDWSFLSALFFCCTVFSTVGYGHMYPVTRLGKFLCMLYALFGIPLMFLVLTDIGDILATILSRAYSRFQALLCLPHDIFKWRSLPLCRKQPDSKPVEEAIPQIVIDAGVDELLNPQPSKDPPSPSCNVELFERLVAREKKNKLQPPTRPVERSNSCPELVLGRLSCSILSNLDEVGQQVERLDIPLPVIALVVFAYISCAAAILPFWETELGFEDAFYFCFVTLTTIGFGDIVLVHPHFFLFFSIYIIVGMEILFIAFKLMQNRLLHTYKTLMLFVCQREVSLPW
T1 sequence (P97438 1-322 isoform P97438-2): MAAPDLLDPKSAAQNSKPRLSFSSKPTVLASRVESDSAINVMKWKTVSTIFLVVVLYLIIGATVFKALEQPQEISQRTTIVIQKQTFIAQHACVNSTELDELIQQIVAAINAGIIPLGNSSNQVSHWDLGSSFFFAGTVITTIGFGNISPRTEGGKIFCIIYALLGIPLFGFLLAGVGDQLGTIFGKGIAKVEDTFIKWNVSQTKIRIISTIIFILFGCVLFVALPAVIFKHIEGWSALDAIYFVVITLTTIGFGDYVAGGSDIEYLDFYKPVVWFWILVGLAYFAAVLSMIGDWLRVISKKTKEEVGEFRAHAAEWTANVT
T3 sequence (P97438 1-411 isoform P97438-2 I292G/D294G): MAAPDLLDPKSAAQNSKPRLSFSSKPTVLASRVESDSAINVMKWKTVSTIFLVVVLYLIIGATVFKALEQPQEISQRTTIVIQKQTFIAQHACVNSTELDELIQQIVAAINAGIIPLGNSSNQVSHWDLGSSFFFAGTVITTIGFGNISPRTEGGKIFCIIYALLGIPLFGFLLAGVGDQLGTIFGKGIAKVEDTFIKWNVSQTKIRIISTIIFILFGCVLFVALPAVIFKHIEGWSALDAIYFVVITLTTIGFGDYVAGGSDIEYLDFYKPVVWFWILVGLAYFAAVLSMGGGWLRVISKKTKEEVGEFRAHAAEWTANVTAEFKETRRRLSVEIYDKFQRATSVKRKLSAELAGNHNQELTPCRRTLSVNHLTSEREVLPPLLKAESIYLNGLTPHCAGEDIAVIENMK
T5 sequence (Q3LS21 whole entry): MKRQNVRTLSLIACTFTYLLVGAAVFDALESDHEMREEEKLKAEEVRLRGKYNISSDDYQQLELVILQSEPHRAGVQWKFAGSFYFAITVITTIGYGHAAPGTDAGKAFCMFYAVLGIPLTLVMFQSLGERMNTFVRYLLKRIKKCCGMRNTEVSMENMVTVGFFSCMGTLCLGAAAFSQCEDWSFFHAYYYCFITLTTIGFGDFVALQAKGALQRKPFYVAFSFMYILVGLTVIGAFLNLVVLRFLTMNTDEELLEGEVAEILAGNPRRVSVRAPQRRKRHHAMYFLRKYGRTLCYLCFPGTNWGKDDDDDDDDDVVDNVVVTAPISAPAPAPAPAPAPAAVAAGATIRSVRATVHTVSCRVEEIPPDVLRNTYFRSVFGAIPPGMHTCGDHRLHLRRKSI

Structure (SMILES) | EC50 (TREK-1/AAK M2-C) [µM] | EC50 (K2P2.1(TREK-1)Δ322) [µM] | EC50 (K2P2.1(TREK-1)Δ308) [µM] | solubility [1] [µM] | EC50 (K2P2.1(TREK-1)GGG) [µM] | activation of K2P18.1(TRESK) (K2P18.1(TRESK)) | activation of K2P9.1(TASK-3) (K2P9.1(TASK-3))
CS(=O)(=O)Nc1ccc(C(=O)NCc2ccc(Cl)cc2Cl)cc1 [ML335] | > 100 | – | – | – | – | – | –
c1ccc(-c2nnn[nH]2)c(Nc2cccc3c2CCCC3)c1 [BL-1249, (5,6,7,8-tetrahydro-naphthalen-1-yl)-[2-(1H-tetrazol-5-yl)-phenyl]-amine] | – | 26 ± 8 | 35 ± 8 | ~80 (≈ 23.3 µg/mL) | 19 ± 1 | failed to find evidence for activation | failed to find evidence for activation
